Activity calls are given as the source filed them. The rule behind the calls is not given here.
Columns and labels:
Androgen receptor [1] = target: T1, Androgen receptor (Homo sapiens, UniProt P10275); assay: Displacement of [3H]DHT from androgen receptor expressed in Sf9 cells
T1 sequence (P10275 whole entry): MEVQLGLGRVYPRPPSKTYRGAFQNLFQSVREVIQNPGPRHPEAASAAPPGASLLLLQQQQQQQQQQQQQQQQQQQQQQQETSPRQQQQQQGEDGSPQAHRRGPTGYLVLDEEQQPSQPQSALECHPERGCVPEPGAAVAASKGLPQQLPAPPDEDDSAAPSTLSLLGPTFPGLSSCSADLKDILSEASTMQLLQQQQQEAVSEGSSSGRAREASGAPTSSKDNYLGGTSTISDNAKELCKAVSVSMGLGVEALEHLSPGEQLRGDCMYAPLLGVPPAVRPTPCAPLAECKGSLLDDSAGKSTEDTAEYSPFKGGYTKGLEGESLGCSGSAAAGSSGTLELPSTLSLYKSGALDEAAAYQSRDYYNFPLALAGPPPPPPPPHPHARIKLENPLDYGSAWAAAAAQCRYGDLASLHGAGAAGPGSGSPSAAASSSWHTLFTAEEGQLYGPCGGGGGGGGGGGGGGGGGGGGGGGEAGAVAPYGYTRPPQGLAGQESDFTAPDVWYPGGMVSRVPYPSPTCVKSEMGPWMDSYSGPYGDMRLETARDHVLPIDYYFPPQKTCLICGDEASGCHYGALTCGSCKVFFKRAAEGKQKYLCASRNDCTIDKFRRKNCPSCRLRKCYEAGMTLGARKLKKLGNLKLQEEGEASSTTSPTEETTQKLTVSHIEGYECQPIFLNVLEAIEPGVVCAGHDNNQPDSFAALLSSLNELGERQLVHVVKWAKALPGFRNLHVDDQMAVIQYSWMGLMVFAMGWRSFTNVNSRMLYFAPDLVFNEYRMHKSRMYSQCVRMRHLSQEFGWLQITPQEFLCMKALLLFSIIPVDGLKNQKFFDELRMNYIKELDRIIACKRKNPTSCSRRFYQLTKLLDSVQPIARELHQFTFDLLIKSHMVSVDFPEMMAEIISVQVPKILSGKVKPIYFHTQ

Androgen receptor [2] = target: T1, Androgen receptor; assay: Antagonist activity at androgen receptor expressed in MDA-MB-453 cells assessed as inhibition of dihydrotestosterone-induced response in reporter gene assay; assay type: functional, cell-based
Syrian golden hamster [3] = assay: Reduction of sebum production in topically dosed Syrian hamster ear model administered at 0.5% concentration twice daily for 2 weeks; assay type: functional, Mesocricetus auratus; parameters: scale not given: the % may be the effect or the level left
[4] = Half life in Sprague-Dawley rat at 1 mg/kg, iv; assay type: ADME, organism-based; parameters: dose 1 mg/kg, route intravenous; conditions: in vivo
[5] = Metabolic stability in human hepatocytes assessed as hepatic extraction ratio at 1 uM; assay type: ADME, cell-based, Hepatocyte; conditions: read-out: Stability
Mus musculus = assay: Stimulation of hair growth in topically dosed C3H/HeN mouse model administered twice daily for 4 weeks; assay type: functional, organism-based
[6] = Volume of distribution at steady state in Sprague-Dawley rat at 1 mg/kg, iv; assay type: ADME, organism-based; parameters: dose 1 mg/kg, route intravenous; conditions: in vivo, read-out: Vdss
[7] = Metabolic stability in Beagle dog hepatocytes assessed as hepatic extraction ratio at 1 uM; assay type: ADME, cell-based, Canis lupus familiaris, Hepatocyte; conditions: read-out: Stability
[8] = Plasma clearance in Sprague-Dawley rat at 1 mg/kg, iv; assay type: ADME, organism-based; parameters: dose 1 mg/kg, route intravenous
[9] = Metabolic stability in Sprague-Dawley rat hepatocytes assessed as hepatic extraction ratio at 1 uM; assay type: ADME, cell-based, Hepatocyte; conditions: read-out: Stability
Syrian golden hamster [10] = assay: Reduction of sebaceous gland size in topically dosed Syrian hamster ear model administered twice daily for 2 weeks; assay type: functional, organism-based; conditions: Mesocricetus auratus
Syrian golden hamster [11] = assay: Reduction of sebum production in topically dosed Syrian hamster ear model administered twice daily for 2 weeks; assay type: functional, Mesocricetus auratus

N#Cc1ccc(O[C@H]2CCCC[C@@H]2C#N)cc1C(F)(F)F
IC50 (Androgen receptor [1]): 43 nM | IC50 (Androgen receptor [2]): 196 nM

CC1(C)C(=O)N(c2ccc(C#N)c(C(F)(F)F)c2)C(=O)N1CCCCO [RU-58841]
Activity (Syrian golden hamster [3]): 91%

N#Cc1ccc(OC2CCCCC2C#N)cc1C(F)(F)F (racemic)
IC50 (Androgen receptor [1]): 58 nM | IC50 (Androgen receptor [2]): 13 nM

N#Cc1ccc(O[C@@H]2CCCC[C@H]2C#N)cc1C(F)(F)F
half-life [4]: 1.6 h | hepatic extraction ratio at 1 µM [5]: 0.57 | Activity (Mus musculus): Dose-dependent effect | Vd [6]: 6.5 L/kg | hepatic extraction ratio at 1 µM [7]: 0.92 | IC50 (Androgen receptor [1]): 60 nM | clearance [8]: 71 mL/min/kg | hepatic extraction ratio at 1 µM [9]: 0.88 | Activity (Syrian golden hamster [10]): Active | ED50 (Syrian golden hamster [11]): 0.1% | IC50 (Androgen receptor [2]): 12 nM
